Measured values from patent US5668152A, “Protein kinase C inhibitors” (priority 1995, dated 1997).
Like-named read-outs stand apart in the source and are kept apart here.

Assays:
protein kinase C alpha = protein kinase C alpha (Homo sapiens, UniProt P17252); assay: PKC Enzyme assay, alpha isozyme; format: biochemical
Protocol: (§1) PKC enzymes=alpha, beta I, beta II, gamma, delta, epsilon, eta and zeta.
(§2) Assay components in a total volume of 250 μL are the following:
(§3) Vesicles consisting of 120 μg/mL phosphatidylserine (Avanti Polar Lipids) and sufficient diacylglycerol (Avanti Polar Lipids) to activate the enzyme to maximum activity in 20 mM HEPES buffer (Sigma, St. Louis, Mo.), pH 7.5, 940 μM calcium chloride (Sigma, St. Louis, Mo.) for assaying the alpha, beta I, beta II and gamma enzyme only, 1 mM EGTA for all the enzymes, 10 mM magnesium chloride (Sigma, St. Louis, Mo.) and 30 μM (gamma-32P) ATP (DuPont). For all the enzymes either histone type HL (Worthington) or myelin basic protein is used as substrate. The assay is started by addition of protein kinase C enzyme incubated at 30° C. for 10 minutes and stopped by adding 0.5 mL of cold trichloroacetic acid (Amresco) followed by 100 μL of 1 mg/mL bovine serum albumin (Sigma, St. Louis, Mo.). The precipitate is collected by vacuum filtration on glass fiber filters employing a TOMTEC™ filtration system and quantified by counting in a beta scintillation counter.

protein kinase C beta-1 = protein kinase C beta-1 (Homo sapiens, UniProt P05771); assay: PKC Enzyme assay, beta I isozyme; format: biochemical
Sequence of protein kinase C beta-1 (P05771 whole entry): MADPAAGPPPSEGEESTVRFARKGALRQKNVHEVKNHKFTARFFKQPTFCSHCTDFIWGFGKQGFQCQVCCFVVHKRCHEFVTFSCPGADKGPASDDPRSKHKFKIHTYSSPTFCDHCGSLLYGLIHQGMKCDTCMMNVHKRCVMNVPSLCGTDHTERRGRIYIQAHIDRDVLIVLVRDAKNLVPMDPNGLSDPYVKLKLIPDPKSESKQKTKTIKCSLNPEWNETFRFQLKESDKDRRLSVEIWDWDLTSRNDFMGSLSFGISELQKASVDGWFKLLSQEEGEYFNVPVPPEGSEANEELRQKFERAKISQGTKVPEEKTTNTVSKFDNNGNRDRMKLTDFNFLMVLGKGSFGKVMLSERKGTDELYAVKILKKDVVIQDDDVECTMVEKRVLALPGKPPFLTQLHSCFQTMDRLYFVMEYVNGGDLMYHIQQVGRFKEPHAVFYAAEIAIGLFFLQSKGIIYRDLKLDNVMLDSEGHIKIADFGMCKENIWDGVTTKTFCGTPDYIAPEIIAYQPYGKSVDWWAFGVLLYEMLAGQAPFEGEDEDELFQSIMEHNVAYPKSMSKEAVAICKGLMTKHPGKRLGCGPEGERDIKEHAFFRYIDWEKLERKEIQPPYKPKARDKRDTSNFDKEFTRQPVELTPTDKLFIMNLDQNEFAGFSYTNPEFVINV
Protocol: as §1, §2, §3

protein kinase C beta-2 = protein kinase C beta-2 (Homo sapiens, UniProt P05771); assay: PKC Enzyme assay, beta II isozyme; format: biochemical
Sequence of protein kinase C beta-2 (P05771 1-673 isoform P05771-2): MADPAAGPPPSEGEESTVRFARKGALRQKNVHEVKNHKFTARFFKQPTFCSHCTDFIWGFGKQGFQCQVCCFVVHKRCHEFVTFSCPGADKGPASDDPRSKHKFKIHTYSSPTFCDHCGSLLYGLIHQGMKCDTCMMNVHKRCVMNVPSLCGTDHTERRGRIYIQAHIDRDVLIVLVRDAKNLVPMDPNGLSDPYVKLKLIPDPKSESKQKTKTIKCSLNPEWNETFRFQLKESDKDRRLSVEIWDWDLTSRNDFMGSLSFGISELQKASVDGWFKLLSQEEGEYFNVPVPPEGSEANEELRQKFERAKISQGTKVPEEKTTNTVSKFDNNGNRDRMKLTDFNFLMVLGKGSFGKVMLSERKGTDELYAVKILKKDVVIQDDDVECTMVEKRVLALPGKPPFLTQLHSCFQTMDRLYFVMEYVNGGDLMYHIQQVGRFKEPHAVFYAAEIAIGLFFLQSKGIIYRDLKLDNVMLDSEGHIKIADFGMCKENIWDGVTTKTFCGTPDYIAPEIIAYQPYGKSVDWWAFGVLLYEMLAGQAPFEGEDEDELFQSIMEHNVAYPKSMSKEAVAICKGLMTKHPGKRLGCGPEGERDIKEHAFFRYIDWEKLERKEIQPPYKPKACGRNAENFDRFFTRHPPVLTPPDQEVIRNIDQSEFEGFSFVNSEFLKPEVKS
Protocol: as §1, §2, §3

protein kinase C gamma = protein kinase C gamma (Homo sapiens, UniProt P05129); assay: PKC Enzyme assay, gamma isozyme; format: biochemical
Protocol: as §1, §2, §3

protein kinase C delta = protein kinase C delta (Homo sapiens, UniProt Q05655); assay: biochemical
Sequence of protein kinase C delta (Q05655 whole entry): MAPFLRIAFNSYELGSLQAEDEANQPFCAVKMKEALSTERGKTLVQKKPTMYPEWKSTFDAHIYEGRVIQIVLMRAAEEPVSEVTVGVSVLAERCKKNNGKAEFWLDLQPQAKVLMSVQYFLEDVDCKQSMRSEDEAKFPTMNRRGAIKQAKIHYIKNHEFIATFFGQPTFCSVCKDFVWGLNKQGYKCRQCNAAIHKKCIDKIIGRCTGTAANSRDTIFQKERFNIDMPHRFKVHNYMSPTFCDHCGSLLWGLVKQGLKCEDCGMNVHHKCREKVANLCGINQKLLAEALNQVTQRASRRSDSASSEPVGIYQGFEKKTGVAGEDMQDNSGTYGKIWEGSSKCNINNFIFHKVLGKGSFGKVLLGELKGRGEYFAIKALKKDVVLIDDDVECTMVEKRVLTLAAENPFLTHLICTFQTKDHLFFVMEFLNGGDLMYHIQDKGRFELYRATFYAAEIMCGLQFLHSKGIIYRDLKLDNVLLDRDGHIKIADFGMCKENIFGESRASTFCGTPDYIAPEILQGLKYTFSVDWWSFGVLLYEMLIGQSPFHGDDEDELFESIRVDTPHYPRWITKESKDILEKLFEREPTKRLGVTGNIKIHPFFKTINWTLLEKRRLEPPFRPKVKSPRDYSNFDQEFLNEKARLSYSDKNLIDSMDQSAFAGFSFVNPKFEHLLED
Protocol: as §1, §2, §3

protein kinase C epsilon = molecular target: T1, protein kinase C epsilon (Homo sapiens, UniProt Q02156); assay: PKC Enzyme assay, epsilon isozyme; format: biochemical
T1 sequence (Q02156 1-737): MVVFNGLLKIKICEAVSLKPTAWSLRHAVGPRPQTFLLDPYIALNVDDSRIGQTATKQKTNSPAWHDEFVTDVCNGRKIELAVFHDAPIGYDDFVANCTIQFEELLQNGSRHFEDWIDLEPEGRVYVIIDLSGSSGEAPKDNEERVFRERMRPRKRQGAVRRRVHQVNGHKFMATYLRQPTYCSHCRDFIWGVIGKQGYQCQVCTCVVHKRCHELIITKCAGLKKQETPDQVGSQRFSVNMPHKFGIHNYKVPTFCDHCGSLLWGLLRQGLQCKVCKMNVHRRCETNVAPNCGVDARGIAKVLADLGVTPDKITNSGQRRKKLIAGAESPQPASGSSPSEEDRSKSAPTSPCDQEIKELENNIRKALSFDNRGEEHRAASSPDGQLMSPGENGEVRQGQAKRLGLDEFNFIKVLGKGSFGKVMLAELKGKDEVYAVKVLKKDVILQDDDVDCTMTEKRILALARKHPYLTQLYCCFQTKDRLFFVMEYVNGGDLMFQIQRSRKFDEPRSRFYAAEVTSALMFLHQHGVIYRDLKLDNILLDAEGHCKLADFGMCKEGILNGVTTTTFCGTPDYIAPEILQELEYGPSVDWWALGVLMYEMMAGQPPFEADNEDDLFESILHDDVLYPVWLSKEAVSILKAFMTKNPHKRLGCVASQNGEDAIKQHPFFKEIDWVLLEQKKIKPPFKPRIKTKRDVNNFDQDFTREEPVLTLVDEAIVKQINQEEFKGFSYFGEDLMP
Protocol: as §1, §2, §3

protein kinase C zeta = molecular target: T2, protein kinase C zeta (Homo sapiens, UniProt Q05513); assay: PKC Enzyme assay, zeta isozyme; format: biochemical
T2 sequence (Q05513 1-592): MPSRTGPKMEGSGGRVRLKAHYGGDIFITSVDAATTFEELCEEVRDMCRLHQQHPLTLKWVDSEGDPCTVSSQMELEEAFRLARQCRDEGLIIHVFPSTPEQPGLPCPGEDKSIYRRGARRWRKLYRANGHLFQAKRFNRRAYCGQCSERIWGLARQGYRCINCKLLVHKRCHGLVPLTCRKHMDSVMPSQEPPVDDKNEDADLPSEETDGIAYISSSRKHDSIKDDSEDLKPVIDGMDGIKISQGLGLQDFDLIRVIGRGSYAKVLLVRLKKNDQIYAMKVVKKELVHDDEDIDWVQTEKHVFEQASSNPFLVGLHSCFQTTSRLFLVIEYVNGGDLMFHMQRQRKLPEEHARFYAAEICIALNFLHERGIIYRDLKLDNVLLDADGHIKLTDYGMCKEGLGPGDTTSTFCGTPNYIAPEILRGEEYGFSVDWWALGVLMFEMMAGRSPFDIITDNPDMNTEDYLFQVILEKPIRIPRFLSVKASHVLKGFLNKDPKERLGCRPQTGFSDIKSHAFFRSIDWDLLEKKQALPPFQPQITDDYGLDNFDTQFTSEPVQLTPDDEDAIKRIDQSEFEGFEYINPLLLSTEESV
Protocol: as §1, §2, §3

protein kinase C eta = protein kinase C eta (Homo sapiens, UniProt P24723); assay: PKC Enzyme assay, eta isozyme; format: biochemical
Sequence of protein kinase C eta (P24723 whole entry): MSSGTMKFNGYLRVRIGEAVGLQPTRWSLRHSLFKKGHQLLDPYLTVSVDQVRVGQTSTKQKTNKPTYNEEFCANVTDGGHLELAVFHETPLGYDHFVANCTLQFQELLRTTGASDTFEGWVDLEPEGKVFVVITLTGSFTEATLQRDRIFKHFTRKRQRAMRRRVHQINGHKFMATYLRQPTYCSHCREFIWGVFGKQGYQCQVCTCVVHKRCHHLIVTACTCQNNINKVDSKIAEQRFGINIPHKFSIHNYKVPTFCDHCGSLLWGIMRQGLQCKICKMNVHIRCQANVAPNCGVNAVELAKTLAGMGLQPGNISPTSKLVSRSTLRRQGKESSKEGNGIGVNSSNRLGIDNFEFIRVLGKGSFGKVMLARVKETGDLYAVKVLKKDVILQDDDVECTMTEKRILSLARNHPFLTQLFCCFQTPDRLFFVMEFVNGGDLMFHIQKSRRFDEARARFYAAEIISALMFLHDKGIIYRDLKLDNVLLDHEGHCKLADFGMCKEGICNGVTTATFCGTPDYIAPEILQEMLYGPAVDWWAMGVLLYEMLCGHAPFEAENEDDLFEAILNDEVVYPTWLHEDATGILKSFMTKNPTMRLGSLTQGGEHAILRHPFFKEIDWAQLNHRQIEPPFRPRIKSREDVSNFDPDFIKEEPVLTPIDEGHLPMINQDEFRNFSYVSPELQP
Protocol: as §1, §2, §3

[1] = PKC alpha, 30 μM ATP, 30° C., 10 minutes, read-out: IC50 α
[2] = PKC beta-1, 30 μM ATP, 30° C., 10 minutes, read-out: IC50 β1
[3] = PKC beta-2, 30 μM ATP, 30° C., 10 minutes, read-out: IC50 β2
[4] = PKC gamma, 30 μM ATP, 30° C., 10 minutes, read-out: IC50 γ
[5] = PKC delta, 30 μM ATP, 30° C., 10 minutes, read-out: IC50 δ
[6] = PKC epsilon, 30 μM ATP, 30° C., 10 minutes, read-out: IC50 ε
[7] = PKC zeta, 30 μM ATP, 30° C., 10 minutes, read-out: IC50 ζ
[8] = PKC eta, 30 μM ATP, 30° C., 10 minutes, read-out: IC50 η

Row | SMILES | IC50 (protein kinase C alpha; [1]) [µM] | IC50 (protein kinase C beta-1; [2]) [µM] | IC50 (protein kinase C beta-2; [3]) [µM] | IC50 (protein kinase C gamma; [4]) [µM] | IC50 (protein kinase C delta; [5]) [µM] | IC50 (protein kinase C epsilon; [6]) [µM] | IC50 (protein kinase C zeta; [7]) [µM] | IC50 (protein kinase C eta; [8]) [µM] | IC50 (protein kinase C alpha) [µM] | IC50 (protein kinase C beta-1) [µM] | IC50 (protein kinase C beta-2) [µM] | IC50 (protein kinase C gamma) [µM] | IC50 (protein kinase C delta) [µM] | IC50 (protein kinase C epsilon) [µM] | IC50 (protein kinase C zeta) [µM] | IC50 (protein kinase C eta) [µM]
1 | Cn1cc(C2=C(c3cn(C4CCN(C(=NC(=O)OC(C)(C)C)NC(=O)OC(C)(C)C)CC4)c4ccccc34)C(=O)NC2=O)c2ccccc21 [Example 5, [t-Butoxycarbonylimino-(4-{3-[4-(1-methyl-1H-indol-3-yl)-2,5-dioxo-2,5-dihydro-1H-pyrrole-3-yl]-indol-1-yl}-piperidin-1-yl)-methyl]-carbamic acid t-butyl ester] | 0.37 | 0.044 | 0.029 | 0.5 | 0.47 | 2.6 | 42 | 0.15 |  |  |  |  |  |  |  | 
2 | O=C1NC(=O)C(c2cn(CCCO)c3ccccc23)=C1c1c[nH]c2ccccc12 [Example 11] | 0.45 | 0.039 | 0.046 | 1.1 | 0.41 | 0.68 | 16 | 0.1 |  |  |  |  |  |  |  | 
3 | Cn1cc(C2=C(c3c4n(c5ccccc35)CCC(CO)C4)C(=O)NC2=O)c2ccccc21 (stereo not drawn) [Example 9, 3-[8-(Hydroxymethyl)-6,7,8,9-tetrahydropyrido[1,2-a]indol-10-yl]-4-(1-methyl-3-indolyl)-1H-pyrrole-2,5 dione] | 0.27 | 0.014 | 0.0061 | 1.5 | 0.44 | 3.8 | 9.26 | 0.4 |  |  |  |  |  |  |  | 
4 | CN(C)CCCN1CCC(n2cc(C3=C(c4cn(C)c5ccccc45)C(=O)NC3=O)c3ccccc32)CC1 [Example 41, 3-{1-[1-N-(3-N,N-(Dimethylamino)propyl)-piperidin-4-yl]-indol-3-yl}-4-(1-methyl-indol-3-yl)-1H-pyrrole-2,5-dione] | 3 | 0.2 | 0.1 | 4 | 4 | 1 | 15 | 2 |  |  |  |  |  |  |  | 
5 | CN1CCC(n2cc(C3=C(c4cn(C)c5ccccc45)C(=O)NC3=O)c3ccccc32)CC1 [Example 42, 3-[1-(1-Methyl-piperidin-4-yl)-indol-3-yl]-4-(1-methyl-indol-3-yl)-1H-pyrrole-2,5-dione] | 0.4 | 0.02 | 0.01 | 0.5 | 0.4 | 0.4 | 4 | 0.05 |  |  |  |  |  |  |  | 
6 | CC(C)(C)OC(=O)N1CCC(n2cc(C3=C(c4c[nH]c5ccccc45)C(=O)NC3=O)c3ccccc32)CC1 [Example 7] | 3.3 | 0.23 | 0.1 | 2.8 | 4.1 | 6.3 | 31 | 6.2 |  |  |  |  |  |  |  | 
7 | Cn1cc(C2=C(c3cn(C4CN(C(c5ccccc5)c5ccccc5)C4)c4ccccc34)C(=O)NC2=O)c2ccccc21 [Example 72, 3-[1-(Benzhydryl-azetidin-3-yl)-indol-3-yl)-4-(1-methyl-indol-3-yl)-1H-pyrrole-2,5-dione] | > 100 | 9.1 | 2.7 | 90 | > 100 | > 100 | 49 | 0.042 |  |  |  |  |  |  |  | 
8 | CN(C)CCCn1cc(C2=C(c3c[nH]c4ccccc34)C(=O)NC2=O)c2ccccc21 [Example 10] |  |  |  |  |  |  |  |  | 0.66 | 0.05 | 0.05 | 1.04 | 0.92 | 0.93 | 23 | 0.09
9 | Cc1c(C2=C(c3c(C)n(CN(C)C)c4ccccc34)C(=O)NC2=O)c2ccccc2n1CCCN(C)C [Example 16] | 39 | 0.7 | 0.6 | 9.2 | 8 | 10 | 40 | 5.6 |  |  |  |  |  |  |  | 
10 | Cc1c(C2=C(c3cn(CN(C)C)c4ccccc34)C(=O)NC2=O)c2ccccc2n1CCCN(C)C [Example 15] | 4.9 | 0.14 | 0.1 | 4 | 3.4 | 5.5 | 37 | 1.3 |  |  |  |  |  |  |  | 
11 | Cn1cc(C2=C(c3c4n(c5ccccc35)CCC(CO)(CO)C4)C(=O)NC2=O)c2ccccc21 [Example 2, 3-[8,8-bis(hydroxymethylene)-6,7,8,9-tetrahydropyrido[1,2-a]indol-10-yl]-4-(1-methyl-3-indolyl)-1H-pyrrole-2,5-dione] | 3.5 | 0.07 | 0.06 | 8.8 | 6.8 | 31.8 | 33 | 5.7 |  |  |  |  |  |  |  | 
12 | Cn1cc(C2=C(c3cn(C4CCN(CC(F)(F)C(F)(F)C(F)(F)F)CC4)c4ccccc34)C(=O)NC2=O)c2ccccc21 [Example 46, 3-{1-[1-(2,2,3,3,4,4,4-Heptafluoro-butyl)-piperidin-4-yl]-indol-3-yl}-4-(1-methyl-indol-3-yl)-1H-pyrrole-2,5-dione] |  |  |  |  |  |  |  |  | > 100 | 3 | 0.46 | > 100 | > 100 | > 100 | > 100 | > 100
